Test [1] concerns T47D (PI3Kα-H1047R) cell line. The test can be described thus: HTRF phospho-AKT(S473) cell assay in T47D cells. The format is cell-based, human. In a few lines: (§1)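 HTRF read-out of phospho-AKT(S473) in lysates gave IC50 values after 2 h compound exposure at 37° C. Dose series was 12 points at 1:3, topping at 5 μM for T47D and 10 μM for SKBR3. Only SKBR3 received 70 ng/ml PDGF-BB during the last 15 minutes.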

Test [2] relates to SKBR3 (PI3Kα-Wild Type) cell line. The test can be described thus: HTRF phospho-AKT(S473) cell assay in SKBR3 cells. The class given is cell-based, human. In a few lines:
as §1
(In TR-FRET formats the signal depends on donor and acceptor labels being close together.)

[3] abbreviates: Homo sapiens; HTRF phospho-AKT(S473), T47D (PI3Kα-H1047R) cells, 2 hours compound incubation.
Where [4] appears, read: Homo sapiens, SK-BR-3; HTRF phospho-AKT(S473), SKBR3 (PI3Kα-Wild Type) cells, 2 hours compound incubation, PDGF-BB stimulated.
The mark [5] stands for this setting: Homo sapiens; T47D (PI3Kα-H1047R) cells, HTRF phospho-AKT(S473), 2 hours compound incubation.
Where [6] appears, read: Homo sapiens, SK-BR-3; SKBR3 (PI3Kα-Wild Type) cells, HTRF phospho-AKT(S473), 2 hours compound incubation, PDGF-BB stimulated.

What is called IC50 is the midpoint of a concentration-inhibition curve. A higher IC50 goes with weaker potency in that assay.

For `COc1cc(N2C[C@@H]3C[C@H]2CN3c2nc3c([C@@H](C)Nc4ccc(Cl)nc4C(=O)NS(C)(=O)=O)cc(C)cc3c(=O)n2C)ccn1` [Compound 637, 6-chloro-3-(((R)-1-(2-((1S,4S)-5-(2-methoxypyridin-4-yl)-2,5-diazabicyclo [2.2.1]heptan-2-yl)-3,6-dimethyl-4-oxo-3,4-dihydroquinazolin-8-yl)ethyl)amino)-N-(methylsulfonyl) picolinamide], the IC50 in test [1] (setting [3]) is 250 to 500 nM; in test [2] (setting [4]), at least 5000 nM.
Regarding `Cc1cc([C@@H](C)Nc2ccc(Cl)nc2C(=O)NS(C)(=O)=O)c2nc(N3CCN(c4ncc(F)cn4)CC3)n(C)c(=O)c2c1` [Compound 533, (R)-6-chloro-3-((1-(2-(4-(5-fluoropyrimidin-2-yl)piperazin-1-yl)-3,6-dimethyl-4-oxo-3,4-dihydroquinazolin-8-yl)ethyl)amino)-N-(methylsulfonyl) picolinamide], the IC50 is below 250 nM in test [1] (setting [3]) and 1000 to 5000 nM in test [2] (setting [4]).
As for `COc1ccnn1C1CCN(c2nc3c([C@@H](C)Nc4ccc(Cl)nc4C(=O)NS(C)(=O)=O)cc(C)cc3c(=O)n2C)CC1` [Compound 318, (R)-6-chloro-3-((1-(2-(4-(5-methoxy-1H-pyrazol-1-yl)piperidin-1-yl)-3,6-dimethyl-4-oxo-3,4-dihydroquinazolin-8-yl)ethyl)amino)-N-(methylsulfonyl) picolinamide], the IC50 in test [1] (setting [5]) was below 250 nM; in test [2] (setting [6]), 1000 to 5000 nM.
For the compound `Cc1cc([C@@H](C)Nc2ccc(Cl)nc2C(=O)NS(C)(=O)=O)c2nc(N3CCC[C@@H](Oc4cnc(C)cn4)C3)n(C)c(=O)c2c1` [Compound 376, 6-chloro-3-(((R)-1-(3,6-dimethyl-2-((R)-3-((5-methylpyrazin-2-yl)oxy)piperidin-1-yl)-4-oxo-3,4-dihydroquinazolin-8-yl)ethyl)amino)-N-(methylsulfonyl) picolinamide], the IC50 in test [1] (setting [5]) is 250 to 500 nM; in test [2] (setting [6]), at least 5000 nM.
Take `Cc1cc([C@@H](C)Nc2ccc(Cl)nc2C(=O)NS(C)(=O)=O)c2nc(N3CC[C@H](Oc4cc[nH]n4)C3)n(C)c(=O)c2c1` [Compound 362, 3-(((R)-1-(2-((S)-3-((1H-pyrazol-3-yl)oxy)pyrrolidin-1-yl)-3,6-dimethyl-4-oxo-3,4-dihydroquinazolin-8-yl)ethyl)amino)-6-chloro-N-(methylsulfonyl) picolinamide]: the IC50 in test [1] (setting [5]) was below 250 nM; in test [2] (setting [6]), 1000 to 5000 nM.
For the compound `CC(=O)N1CCN(c2ccc(-c3nc4c([C@@H](C)Nc5ccc(Cl)nc5C(=O)NS(C)(=O)=O)cc(C)cc4c(=O)n3C)cc2F)CC1` [Compound 778, (R)-3-((1-(2-(4-(4-acetylpiperazin-1-yl)-3-fluorophenyl)-3,6-dimethyl-4-oxo-3,4-dihydroquinazolin-8-yl)ethyl)amino)-6-chloro-N-(methylsulfonyl) picolinamide], the IC50 in test [1] (setting [3]) is below 250 nM; in test [2] (setting [4]), 1000 to 5000 nM.
For `Cc1cc([C@@H](C)Nc2ccc(Cl)nc2C(=O)NS(C)(=O)=O)c2nc(N3CCC(c4cc5n(n4)CCO5)CC3)n(C)c(=O)c2c1` [Compound 556, (R)-6-chloro-3-((1-(2-(4-(2,3-dihydropyrazolo[5,1-b]oxazol-6-yl)piperidin-1-yl)-3,6-dimethyl-4-oxo-3,4-dihydroquinazolin-8-yl)ethyl)amino)-N-(methylsulfonyl) picolinamide], in that order: below 250 nM and 1000 to 5000 nM.
For `Cc1cc([C@@H](C)Nc2ccc(Cl)nc2C(=O)NS(C)(=O)=O)c2nc(-c3cc(F)c4cn(C)nc4c3)n(C)c(=O)c2c1` [Compound 824, (R)-6-chloro-3-((1-(2-(4-fluoro-2-methyl-2H-indazol-6-yl)-3,6-dimethyl-4-oxo-3,4-dihydroquinazolin-8-yl)ethyl)amino)-N-(methylsulfonyl) picolinamide], the IC50 in test [1] (setting [3]) was below 250 nM; in test [2] (setting [4]), 1000 to 5000 nM.
For `Cc1cc([C@@H](C)Nc2ccc(Cl)nc2C(=O)NS(C)(=O)=O)c2nc(-c3ccc(Nc4ccn(C)n4)nc3)n(C)c(=O)c2c1` [Compound 339, (R)-6-chloro-3-((1-(3,6-dimethyl-2-(6-((1-methyl-1H-pyrazol-3-yl)amino)pyridin-3-yl)-4-oxo-3,4-dihydroquinazolin-8-yl)ethyl)amino)-N-(methylsulfonyl) picolinamide], the results for the IC50 in test [1] (setting [5]) and in test [2] (setting [6]) were below 250 nM and 1000 to 5000 nM, respectively.
As to `CCn1c(-c2ccc3nn(C)cc3c2)nc2c([C@@H](C)Nc3ccc(Cl)nc3C(=O)NS(C)(=O)=O)cc(C)cc2c1=O` [Compound 812, (R)-6-chloro-3-((1-(3-ethyl-6-methyl-2-(2-methyl-2H-indazol-5-yl)-4-oxo-3,4-dihydroquinazolin-8-yl)ethyl)amino)-N-(methylsulfonyl) picolinamide], the IC50 was below 250 nM in test [1] (setting [3]) and 1000 to 5000 nM in test [2] (setting [4]).
Consider `Cc1cc([C@@H](C)Nc2ccc(Cl)nc2C(=O)NS(C)(=O)=O)c2nc(N3CC[C@H](Oc4ncc(F)cn4)C3)n(C)c(=O)c2c1` [Compound 537, 6-chloro-3-(((R)-1-(2-((S)-3-((5-fluoropyrimidin-2-yl)oxy)pyrrolidin-1-yl)-3,6-dimethyl-4-oxo-3,4-dihydroquinazolin-8-yl)ethyl)amino)-N-(methylsulfonyl) picolinamide], for which the IC50 was 250 to 500 nM in test [1] (setting [3]) and at least 5000 nM in test [2] (setting [4]).
With `Cc1cc([C@@H](C)Nc2ccc(Cl)nc2C(=O)NS(C)(=O)=O)c2nc(-c3ccc(-c4cnn(C)c4)c(F)c3)n(C)c(=O)c2c1` [Compound 794, (R)-6-chloro-3-((1-(2-(3-fluoro-4-(1-methyl-1H-pyrazol-4-yl)phenyl)-3,6-dimethyl-4-oxo-3,4-dihydroquinazolin-8-yl)ethyl)amino)-N-(methylsulfonyl) picolinamide], the concentration for half-maximal inhibition (IC50) in test [1] (setting [3]) is below 250 nM; in test [2] (setting [4]), 1000 to 5000 nM.
As to `Cc1cc([C@@H](C)Nc2ccc(Cl)nc2C(=O)NS(C)(=O)=O)c2nc(-c3ccc(OC[C@@H]4CCN(C)CC4(F)F)nc3)n(C)c(=O)c2c1` [Compound 390, 6-chloro-3-(((R)-1-(2-(6-(((S)-3,3-difluoro-1-methylpiperidin-4-yl)methoxy)pyridin-3-yl)-3,6-dimethyl-4-oxo-3,4-dihydroquinazolin-8-yl)ethyl)amino)-N-(methylsulfonyl) picolinamide], the values for the concentration for half-maximal inhibition (IC50) in test [1] (setting [5]) and in test [2] (setting [6]) were below 250 nM and at least 5000 nM, respectively.
As to `Cc1cc([C@@H](C)Nc2ccc(Cl)nc2C(=O)NS(C)(=O)=O)c2nc(N3Cc4cnn(-c5ccccc5C)c4C3)n(C)c(=O)c2c1` [Compound 191, (R)-6-chloro-3-((1-(3,6-dimethyl-4-oxo-2-(1-(o-tolyl)-4,6-dihydropyrrolo[3,4-c]pyrazol-5(1H)-yl)-3,4-dihydroquinazolin-8-yl)ethyl)amino)-N-(methylsulfonyl) picolinamide], the IC50 in test [1] (setting [5]) is below 250 nM; in test [2] (setting [6]), at least 5000 nM.
As for `Cc1cc([C@@H](C)Nc2ccc(Cl)nc2C(=O)NS(C)(=O)=O)c2nc(N3C[C@H]4C[C@@H]3CN4c3cnn(C)c3)n(C)c(=O)c2c1` [Compound 233, 6-chloro-3-(((R)-1-(3,6-dimethyl-2-((1R,4R)-5-(1-methyl-1H-pyrazol-4-yl)-2,5-diazabicyclo[2.2.1]heptan-2-yl)-4-oxo-3,4-dihydroquinazolin-8-yl)ethyl)amino)-N-(methylsulfonyl) picolinamide], the IC50 in test [1] (setting [5]) was below 250 nM; in test [2] (setting [6]), 1000 to 5000 nM.
In the case of `Cc1cc([C@@H](C)Nc2ccc(Cl)nc2C(=O)NS(C)(=O)=O)c2nc(N3C[C@@H]4[C@H](C3)[C@H]4c3ccn(C)n3)n(C)c(=O)c2c1` [Compound 295, 6-chloro-3-(((R)-1-(3,6-dimethyl-2-((1R,5S,6R)-6-(1-methyl-1H-pyrazol-3-yl)-3-azabicyclo[3.1.0]hexan-3-yl)-4-oxo-3,4-dihydroquinazolin-8-yl)ethyl)amino)-N-(methylsulfonyl) picolinamide], the values for the IC50 in test [1] (setting [5]) and in test [2] (setting [6]) were below 250 nM and 1000 to 5000 nM, respectively.
On to `Cc1cc([C@@H](C)Nc2ccc(Cl)nc2C(=O)NS(C)(=O)=O)c2nc(N3Cc4cnn(CC(F)(F)F)c4C3)n(C3CC3)c(=O)c2c1` [Compound 736, (R)-6-chloro-3-((1-(3-cyclopropyl-6-methyl-4-oxo-2-(1-(2,2,2-trifluoroethyl)-4,6-dihydropyrrolo[3,4-c]pyrazol-5(1H)-yl)-3,4-dihydroquinazolin-8-yl)ethyl)amino)-N-(methylsulfonyl) picolinamide], for which the IC50 is 500 to 1000 nM in test [1] (setting [3]) and at least 5000 nM in test [2] (setting [4]).
For `Cc1cc([C@@H](C)Nc2ccc(Cl)nc2C(=O)NS(C)(=O)=O)c2nc(N3[C@@H]4CC[C@H]3C[C@H](n3cc(C)cn3)C4)n(C)c(=O)c2c1` [Compound 481, 6-chloro-3-(((R)-1-(3,6-dimethyl-2-((1R,3S,5S)-3-(4-methyl-1H-pyrazol-1-yl)-8-azabicyclo[3.2.1]octan-8-yl)-4-oxo-3,4-dihydroquinazolin-8-yl)ethyl)amino)-N-(methylsulfonyl) picolinamide], in that order: 250 to 500 nM and 1000 to 5000 nM.
Regarding `Cc1cc([C@@H](C)Nc2ccc(Cl)nc2C(=O)NS(C)(=O)=O)c2nc(N3C[C@H]4C[C@@H]3CN4c3cnc(C)c(F)c3)n(C)c(=O)c2c1` [Compound 664, 6-chloro-3-(((R)-1-(2-((1R,4R)-5-(5-fluoro-6-methylpyridin-3-yl)-2,5-diazabicyclo [2.2.1]heptan-2-yl)-3,6-dimethyl-4-oxo-3,4-dihydroquinazolin-8-yl)ethyl)amino)-N-(methylsulfonyl) picolinamide], the half-inhibitory concentration (IC50) in test [1] (setting [3]) is 500 to 1000 nM; in test [2] (setting [4]) it was at least 5000 nM.
